# Experimental data from patent publication US20250059205A1, “Heterocyclic Compounds and Methods of Use” (AMGEN INC., priority 2021, published 2025).
# Where two headings read alike, the source gives them in different places.
# How the values were obtained:
# [1] = target: His-tagged KRAS G12D protein (Homo sapiens, UniProt P01116, G12D); assay: KRAS G12D TR-FRET Assay; type: binding
# [2] = target: GDP-bound KRAS protein (aa 1-169), containing both G12D and C118A amino acid substitutions (Homo sapiens, UniProt P01116, C118A/G12D); assay: KRAS G12D Coupled Nucleotide Exchange Assay; type: biochemical; details: 2 h compound pre-incubation
# Method: Following compound pre-incubation, purified SOS protein (aa 564-1049) and GTP (Roche 10106399001) were added to the assay wells and incubated for an additional 30 min. […] The assay plates were then read on a PerkinElmer EnVision Multilabel Reader, using AlphaScreen® technology, and data were analyzed using a 4-parameter logistic model to calculate IC50 values.
# [3] = test system: Phosphorylation of ERK1/2 in A-427 cells; assay: Phospho-ERK1/2 MSD Assay (A-427 cells); type: cell-based; details: 2 h treatment, read-out: p-ERK (A427 cells) IC50
# Method: A-427 (ATCC® HTB-53™) cells were cultured in RPMI 1640 Medium (ThermoFisher Scientific 11875093) containing 10% fetal bovine serum (ThermoFisher Scientific 16000044) and 1× penicillin-streptomycin-glutamine (ThermoFisher Scientific 10378016). Sixteen hours prior to compound treatment, A-427 cells were seeded in 96-well cell culture plates at a density of 25,000 cells/well and incubated at 37° C., 5% CO2. A compound dose-response titration was diluted in growth media, added to appropriate wells of a cell culture plate, and then incubated at 37° C., 5% CO2 for 2 h. Following compound treatment, cells were washed with ice-cold Dulbecco's phosphate-buffered saline, no Ca^2+ or Mg^2+ (ThermoFisher Scientific 14190144), and then lysed in RIPA buffer (50 mM Tris-HCl pH 7.5, 1% Igepal, 0.5% sodium deoxycholate, 150 mM NaCl, and 0.5% sodium dodecyl sulfate) containing protease inhibitors (Roche 4693132001) and phosphatase inhibitors (Roche 4906837001). Phosphorylation of ERK1/2 in compound-treated lysates was assayed using Phospho-ERK1/2 Whole Cell Lysate kits (Meso Scale Discovery K151DWD) according to the manufacturer's protocol. Assay plates were read on a Meso Scale Discovery Sector Imager 6000, and data were analyzed using a 4-parameter logistic model to calculate IC50 values.
# [4] = test system: Phosphorylation of ERK1/2 in AsPC-1 cells; assay: Phospho-ERK1/2 MSD Assay (AsPC-1 cells); type: cell-based; details: 2 hours treatment, read-out: p-ERK (AsPC-1 cells) IC50
# How it was run: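 Read-out: MSD electrochemiluminescent detection of phosphorylated ERK1/2 in whole-cell lysates, fitted to a 4-parameter logistic curve for IC50. Prior to lysis, AsPC-1 cells (25,000 per well) received a 2 h compound dose-response at 37 °C.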
# Sequence of GDP-bound KRAS protein (aa 1-169), containing both G12D and C118A amino acid substitutions (P01116 1-169 isoform P01116-2 G12D/C118A): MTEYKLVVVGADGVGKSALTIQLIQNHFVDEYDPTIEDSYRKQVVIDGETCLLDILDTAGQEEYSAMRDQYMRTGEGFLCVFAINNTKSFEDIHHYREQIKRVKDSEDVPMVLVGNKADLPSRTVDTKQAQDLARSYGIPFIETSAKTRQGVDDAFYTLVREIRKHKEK
# Sequence of His-tagged KRAS G12D protein (P01116 1-188 isoform P01116-2 G12D): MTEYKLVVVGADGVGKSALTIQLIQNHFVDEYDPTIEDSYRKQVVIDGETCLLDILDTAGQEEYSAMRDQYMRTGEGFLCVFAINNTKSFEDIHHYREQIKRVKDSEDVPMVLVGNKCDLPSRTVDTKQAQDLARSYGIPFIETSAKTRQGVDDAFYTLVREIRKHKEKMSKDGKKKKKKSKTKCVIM
smiles,measurement,setting,value
"Nc1ccc(C2CC2)c(-c2ccc3c(N4C[C@H]5CC[C@@H](C4)N5)nc(OC[C@@]45CCCN4C[C@H](F)C5)nc3c2F)n1 [Example 224, 6-(4-((1R,5S)-3,8-diazabicyclo[3.2.1]octan-3-yl)-8-fluoro-2-(((2R,7aS)-2-fluorotetrahydro-1H-pyrrolizin-7a(5H)-yl)methoxy)quinazolin-7-yl)-5-cyclopropylpyridin-2-amine]",IC50,[1],274 nM
same,Avg 2 h Coupled Exchange IC50,[2],41 nM
same,IC50,"[3]; Homo sapiens, A-427, 2 h",7620 nM
same,IC50,"[4]; Homo sapiens, ASPC1, 2 h",> 10000 nM
"Oc1cc(Cl)c(C2CC2)c(-c2c(F)cc3c(N4C[C@H]5CC[C@@H](C4)N5)nc(OC[C@@]45CCCN4C[C@H](F)C5)nc3c2F)c1 [Example 144, 3-(4-((1R,5S)-3,8-diazabicyclo[3.2.1]octan-3-yl)-6,8-difluoro-2-(((2R,7aS)-2-fluorotetrahydro-1H-pyrrolizin-7a(5H)-yl)methoxy)quinazolin-7-yl)-5-chloro-4-cyclopropylphenol]",IC50,[1],3 nM
same,Avg 2 h Coupled Exchange IC50,[2],3 nM
same,IC50,"[3]; Homo sapiens, A-427, 2 h",23 nM
same,IC50,"[4]; Homo sapiens, ASPC1, 2 h",41 nM
"CCc1c(F)ccc2cc(O)cc(-c3cc4nc(OC[C@@]56CCCN5C[C@H](F)C6)nc(N5C[C@H]6CC[C@@H](C5)N6)c4cc3N)c12 [Example 203, 4-(6-Amino-4-((1R,5S)-3,8-diazabicyclo[3.2.1]octan-3-yl)-2-(((2R,7aS)-2-fluorotetrahydro-1H-pyrrolizin-7a(5H)-yl)methoxy)quinazolin-7-yl)-5-ethyl-6-fluoronaphthalen-2-ol]",IC50,[1],6 nM
same,Avg 2 h Coupled Exchange IC50,[2],2 nM
same,IC50,"[3]; Homo sapiens, A-427, 2 h",62 nM
same,IC50,"[4]; Homo sapiens, ASPC1, 2 h",171 nM
"Cc1cc(N)nc(-c2ccc3c(N4C[C@H]5CC[C@@H](C4)N5)nc(OC[C@@]45CCCN4C[C@H](F)C5)nc3c2F)c1C(F)(F)F [Example 229, 6-(4-((1R,5S)-3,8-Diazabicyclo[3.2.1]octan-3-yl)-8-fluoro-2-(((2R,7aS)-2-fluorotetrahydro-1H-pyrrolizin-7a(5H)-yl)methoxy)quinazolin-7-yl)-4-methyl-5-(trifluoromethyl)pyridin-2-amine]",IC50,[1],7 nM
same,Avg 2 h Coupled Exchange IC50,[2],4 nM
same,IC50,"[3]; Homo sapiens, A-427, 2 h",222 nM
same,IC50,"[4]; Homo sapiens, ASPC1, 2 h",486 nM
"CCc1cccc2cccc(-c3c(Cl)cc4c(N5C[C@H]6CC[C@@H](C5)N6)nc(OC[C@@]56CCCN5C[C@H](F)C6)nc4c3F)c12 [Example 71, 4-((1R,5S)-3,8-diazabicyclo[3.2. 1]octan-3-yl)-6-chloro-7-(8-ethylnaphthalen-1-yl)-8-fluoro-2-(((2R,7aS)-2-fluorotetrahydro-1H-pyrrolizin-7a(5H)-yl)methoxy) quinazoline]",IC50,[1],38 nM
same,Avg 2 h Coupled Exchange IC50,[2],50 nM
same,IC50,"[3]; Homo sapiens, A-427, 2 h",4790 nM
same,IC50,"[4]; Homo sapiens, ASPC1, 2 h",3360 nM
"Fc1c(-c2c(Cl)ccc3[nH]ncc23)ccc2c(N3C[C@H]4CC[C@@H](C3)N4)nc(OC[C@@]34CCCN3C[C@H](F)C4)nc12 [Example 196, 4-((1R,5S)-3,8-diazabicyclo[3.2.1]octan-3-yl)-7-(5-chloro-1H-indazol-4-yl)-8-fluoro-2-(((2R,7aS)-2-fluorotetrahydro-1H-pyrrolizin-7a(5H)-yl)methoxy) quinazoline]",IC50,[1],37 nM
same,Avg 2 h Coupled Exchange IC50,[2],20 nM
same,IC50,"[3]; Homo sapiens, A-427, 2 h",1360 nM
same,IC50,"[4]; Homo sapiens, ASPC1, 2 h",2310 nM
"Oc1cc(-c2ccc3c(N4C[C@@H]5CC[C@H]4CN5)nc(OC[C@@]45CCCN4C[C@H](F)C5)nc3c2)c2c(F)c(F)ccc2c1 [Example 113, 4-(4-((1S,4S)-2,5-diazabicyclo[2.2.2]octan-2-yl)-2-(((2R,7aS)-2-fluorotetrahydro-1H-pyrrolizin-7a(5H)-yl)methoxy)quinazolin-7-yl)-5,6-difluoronaphthalen-2-ol]",IC50,[1],3 nM
same,Avg 2 h Coupled Exchange IC50,[2],2 nM
same,IC50,"[3]; Homo sapiens, A-427, 2 h",102 nM
same,IC50,"[4]; Homo sapiens, ASPC1, 2 h",453 nM
CCc1c(F)ccc2cc(O)cc(-c3cc(C)c4c(N5C[C@H]6CC[C@@H](C5)N6)nc(OC[C@@]56CCCN5C[C@H](F)C6)nc4c3F)c12 [Example 230],IC50,[1],4 nM
same,IC50,[2]; read-out: Avg 2 h Coupled Exchange IC50,1 nM
same,IC50,[3],33 nM
same,IC50,[4],68 nM
"CCc1c(F)ccc2cc(O)cc(-c3c(F)cc4c(N5C6CCC5C(=O)NC6)nc(OC[C@@]56CCCN5C[C@H](F)C6)nc4c3F)c12 (single isomer, unassigned) [Example 175]",IC50,[1],6 nM
same,Avg 2 h Coupled Exchange IC50,[2],4 nM
same,IC50,"[3]; Homo sapiens, A-427, 2 h",448 nM
same,IC50,"[4]; Homo sapiens, ASPC1, 2 h",1560 nM
"CN1C[C@H](F)C[C@H]1COc1nc(N2[C@@H]3CNC[C@H]2COC3)c2ccc(-c3cc(O)cc4ccccc34)c(F)c2n1 [Example 6, 4-(4-((1R,5S)-3-oxa-7,9-diazabicyclo[3.3. 1]nonan-9-yl)-8-fluoro-2-(((2S,4R)-4-fluoro-1-methylpyrrolidin-2-yl)methoxy)quinazolin-7-yl)naphthalen-2-ol]",IC50,[1],49 nM
same,Avg 2 h Coupled Exchange IC50,[2],22 nM
same,IC50,"[3]; Homo sapiens, A-427, 2 h",2310 nM
same,IC50,"[4]; Homo sapiens, ASPC1, 2 h",5130 nM
"Oc1cc(-c2c(F)cc3c(N4C[C@@H]5CC[C@H]4CN5)nc(OC[C@@]45CCCN4C[C@H](F)C5)nc3c2F)c2c(F)c(F)ccc2c1 [Example 157, 4-(4-((1S,4S)-2,5-diazabicyclo[2.2.2]octan-2-yl)-6,8-difluoro-2-(((2R,7aS)-2-fluorotetrahydro-1H-pyrrolizin-7a(5H)-yl)methoxy)quinazolin-7-yl)-5,6-difluoronaphthalen-2-ol]",IC50,[1],4 nM
same,Avg 2 h Coupled Exchange IC50,[2],4 nM
same,IC50,"[3]; Homo sapiens, A-427, 2 h",9 nM
same,IC50,"[4]; Homo sapiens, ASPC1, 2 h",46 nM
"Cc1ccc2[nH]ncc2c1-c1ccc2c(N3C[C@H]4CC[C@@H](C3)N4)nc(OC[C@@]34CCCN3C[C@H](F)C4)nc2c1F [Example 195, 4-((1R,5S)-3,8-diazabicyclo[3.2.1]octan-3-yl)-8-fluoro-2-(((2R,7aS)-2-fluorotetrahydro-1H-pyrrolizin-7a(5H)-yl)methoxy)-7-(5-methyl-1H-indazol-4-yl)quinazoline]",IC50,[1],40 nM
same,Avg 2 h Coupled Exchange IC50,[2],17 nM
same,IC50,"[3]; Homo sapiens, A-427, 2 h",2380 nM
same,IC50,"[4]; Homo sapiens, ASPC1, 2 h",2670 nM
"CCc1c(F)ccc2cc(O)cc(-c3ccc4c(N5C[C@H]6CC[C@@H](C5)N6)nc(OCCC(C)(C)O)nc4c3F)c12 [Example 132, 4-(4-((1R,5S)-3,8-diazabicyclo[3.2.1]octan-3-yl)-8-fluoro-2-(3-hydroxy-3-methylbutoxy)quinazolin-7-yl)-5-ethyl-6-fluoronaphthalen-2-ol]",IC50,[1],16 nM
same,Avg 2 h Coupled Exchange IC50,[2],6 nM
same,IC50,"[3]; Homo sapiens, A-427, 2 h",1690 nM
same,IC50,"[4]; Homo sapiens, ASPC1, 2 h",1200 nM
"CCc1cccc2cc(O)cc(-c3c(F)cc4c(N5C[C@@H]6CC[C@H]5CN6)nc(OC[C@@]56CCCN5C[C@H](F)C6)nc4c3F)c12 [Example 109, 4-(4-((1S,4S)-2,5-Diazabicyclo[2.2.2]octan-2-yl)-6,8-difluoro-2-(((2R,7aS)-2-fluorotetrahydro-1H-pyrrolizin-7a(5H)-yl)methoxy)quinazolin-7-yl)-5-ethylnaphthalen-2-ol]",IC50,[1],4 nM
same,Avg 2 h Coupled Exchange IC50,[2],3 nM
same,IC50,"[3]; Homo sapiens, A-427, 2 h",17 nM
same,IC50,"[4]; Homo sapiens, ASPC1, 2 h",29 nM
"CCc1c(F)ccc2cc(O)cc(-c3cc(F)c4c(N5C[C@H]6CC[C@@H](C5)N6)nc(OC[C@@]56CCCN5C[C@H](F)C6)nc4c3F)c12 [Example 231, 4-(4-((1R,5S)-3,8-diazabicyclo[3.2.1]octan-3-yl)-5,8-difluoro-2-(((2R,7aS)-2-fluorotetrahydro-1H-pyrrolizin-7a(5H)-yl)methoxy)quinazolin-7-yl)-5-ethyl-6-fluoronaphthalen-2-ol]",IC50,[1],4 nM
same,Avg 2 h Coupled Exchange IC50,[2],5 nM
same,IC50,"[3]; Homo sapiens, A-427, 2 h",15 nM
same,IC50,"[4]; Homo sapiens, ASPC1, 2 h",68 nM
